Data reported in PubChem BioAssay (NCI).
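GI50 marks 50% less growth. The concentration for full growth arrest is given as TGI.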

Tests used:
Assay in all cases: NCI tumour cell line growth inhibition, 384-well format
SNB-75 CNS = test system: SNB-75 CNS
MDA-MB-468 breast = test system: MDA-MB-468 breast
SK-MEL-2 melanoma = test system: SK-MEL-2 melanoma
BT-549 breast = test system: BT-549 breast
EKVX NSCLC = test system: EKVX NSCLC
OVCAR-3 ovarian = test system: OVCAR-3 ovarian
SN12C renal = test system: SN12C renal
SNB-19 CNS = test system: SNB-19 CNS
IGROV1 ovarian = test system: IGROV1 ovarian
ACHN renal = test system: ACHN renal
NCI-H460 NSCLC = test system: NCI-H460 NSCLC
SK-OV-3 ovarian = test system: SK-OV-3 ovarian
RXF 393 renal = test system: RXF 393 renal
SF-268 CNS = test system: SF-268 CNS
NCI-H522 lung = test system: NCI-H522 lung
TK-10 renal = test system: TK-10 renal
OVCAR-5 ovarian = test system: OVCAR-5 ovarian
PC-3 prostate = test system: PC-3 prostate
HS 578T breast = test system: HS 578T breast
NCI-H23 lung = test system: NCI-H23 lung
SR leukemia = test system: SR leukemia
HCC-2998 colon = test system: HCC-2998 colon
UACC-62 melanoma = test system: UACC-62 melanoma
RPMI-8226 leukemia = test system: RPMI-8226 leukemia
MOLT-4 leukemia = test system: MOLT-4 leukemia
MDA-MB-435 melanoma = test system: MDA-MB-435 melanoma
786-0 renal = test system: 786-0 renal
SW-620 colon = test system: SW-620 colon
CAKI-1 renal = test system: CAKI-1 renal
MDA-MB-231 breast = test system: MDA-MB-231 breast
SK-MEL-5 melanoma = test system: SK-MEL-5 melanoma
NCI-H226 lung = test system: NCI-H226 lung
HT29 colon = test system: HT29 colon
NCI/ADR-RES ovarian = test system: NCI/ADR-RES ovarian
SF-295 CNS = test system: SF-295 CNS
U251 glioblastoma = test system: U251 glioblastoma
DU-145 prostate = test system: DU-145 prostate
HOP-62 NSCLC = test system: HOP-62 NSCLC
NCI-H322M lung = test system: NCI-H322M lung
HCT-15 colon = test system: HCT-15 colon
HCT-116 colon = test system: HCT-116 colon
A498 renal = test system: A498 renal
OVCAR-4 ovarian = test system: OVCAR-4 ovarian
SK-MEL-28 melanoma = test system: SK-MEL-28 melanoma
OVCAR-8 ovarian = test system: OVCAR-8 ovarian
K-562 leukemia = test system: K-562 leukemia
HL-60(TB) leukemia = test system: HL-60(TB) leukemia

Structure (SMILES): CC(=O)N1CC(F)(F)c2c(Sc3ncc(N4CCC5(CC4)COC[C@H]5N)nc3N)cccc21
- GI50 (SNB-75 CNS): 5.83 µM
- TGI (SNB-75 CNS): 29.1 µM
- GI50 (MDA-MB-468 breast): 1520 nM
- TGI (MDA-MB-468 breast): 8.19 µM
- GI50 (SK-MEL-2 melanoma): 16.2 µM
- TGI (SK-MEL-2 melanoma): 30.3 µM
- GI50 (BT-549 breast): 4.68 µM
- TGI (BT-549 breast): 22.1 µM
- GI50 (EKVX NSCLC): 6.02 µM
- TGI (EKVX NSCLC): 43.1 µM
- GI50 (OVCAR-3 ovarian): 14.1 µM
- TGI (OVCAR-3 ovarian): 30.7 µM
- GI50 (SN12C renal): 11.2 µM
- TGI (SN12C renal): 50.9 µM
- GI50 (SNB-19 CNS): 13.6 µM
- TGI (SNB-19 CNS): 41.7 µM
- GI50 (IGROV1 ovarian): 6.38 µM
- TGI (IGROV1 ovarian): 24.5 µM
- GI50 (ACHN renal): 6.61 µM
- TGI (ACHN renal): 27.1 µM
- GI50 (NCI-H460 NSCLC): 18.6 µM
- TGI (NCI-H460 NSCLC): 34.6 µM
- GI50 (SK-OV-3 ovarian): 4820 nM
- TGI (SK-OV-3 ovarian): 19.1 µM
- GI50 (RXF 393 renal): 2.22 µM
- TGI (RXF 393 renal): 8.72 µM
- GI50 (SF-268 CNS): 14.4 µM
- TGI (SF-268 CNS): 48.7 µM
- GI50 (NCI-H522 lung): 1.56 µM
- TGI (NCI-H522 lung): 14.5 µM
- GI50 (TK-10 renal): 4.9 µM
- TGI (TK-10 renal): 19.2 µM
- GI50 (OVCAR-5 ovarian): 18.1 µM
- TGI (OVCAR-5 ovarian): 57.3 µM
- GI50 (PC-3 prostate): 13.4 µM
- TGI (PC-3 prostate): 48.6 µM
- GI50 (HS 578T breast): 13.9 µM
- TGI (HS 578T breast): 29.8 µM
- GI50 (NCI-H23 lung): 2.06 µM
- TGI (NCI-H23 lung): 15.2 µM
- GI50 (SR leukemia): 2350 nM
- TGI (SR leukemia): 6.03 µM
- GI50 (HCC-2998 colon): 17.3 µM
- TGI (HCC-2998 colon): 32.1 µM
- GI50 (UACC-62 melanoma): 12.5 µM
- TGI (UACC-62 melanoma): 25.6 µM
- GI50 (RPMI-8226 leukemia): 3.87 µM
- TGI (RPMI-8226 leukemia): 15.5 µM
- GI50 (MOLT-4 leukemia): 14.1 µM
- TGI (MOLT-4 leukemia): 27.2 µM
- GI50 (MDA-MB-435 melanoma): 29.1 µM
- TGI (MDA-MB-435 melanoma): 91.7 µM
- GI50 ([…]-0 renal): 10.7 µM
- TGI (786-0 renal): 23.5 µM
- GI50 (SW-620 colon): 11.5 µM
- TGI (SW-620 colon): 23.9 µM
- GI50 (CAKI-1 renal): 2.74 µM
- TGI (CAKI-1 renal): 21.1 µM
- GI50 (MDA-MB-231 breast): 15.3 µM
- TGI (MDA-MB-231 breast): 41.4 µM
- GI50 (SK-MEL-5 melanoma): 15.7 µM
- TGI (SK-MEL-5 melanoma): 29.2 µM
- GI50 (NCI-H226 lung): 2.48 µM
- TGI (NCI-H226 lung): 41.9 µM
- GI50 (HT29 colon): 3750 nM
- TGI (HT29 colon): 12.7 µM
- GI50 (NCI/ADR-RES ovarian): 16.3 µM
- TGI (NCI/ADR-RES ovarian): 56.8 µM
- GI50 (SF-295 CNS): 15.5 µM
- TGI (SF-295 CNS): 31.2 µM
- GI50 (U251 glioblastoma): 12.7 µM
- TGI (U251 glioblastoma): 26.6 µM
- GI50 (DU-145 prostate): 19.1 µM
- TGI (DU-145 prostate): 63.1 µM
- GI50 (HOP-62 NSCLC): 13.7 µM
- TGI (HOP-62 NSCLC): 30.9 µM
- GI50 (NCI-H322M lung): 2.08 µM
- TGI (NCI-H322M lung): 27.7 µM
- GI50 (HCT-15 colon): 16.9 µM
- TGI (HCT-15 colon): 31.8 µM
- GI50 (HCT-116 colon): 16.2 µM
- TGI (HCT-116 colon): 30 µM
- GI50 (A498 renal): 2.75 µM
- TGI (A498 renal): 20.8 µM
- GI50 (OVCAR-4 ovarian): 9.78 µM
- TGI (OVCAR-4 ovarian): 35.9 µM
- GI50 (SK-MEL-28 melanoma): 13.1 µM
- TGI (SK-MEL-28 melanoma): 26.2 µM
- GI50 (OVCAR-8 ovarian): 11.9 µM
- TGI (OVCAR-8 ovarian): 30.8 µM
- GI50 (K-562 leukemia): 0.774 µM
- TGI (K-562 leukemia): 13.9 µM
- GI50 (HL-60(TB) leukemia): 10 µM
- TGI (HL-60(TB) leukemia): 21.6 µM

Structure (SMILES): Cc1nc(NC(=O)N2CCC[C@H]2C(N)=O)sc1-c1ccnc(C(C)(C)C(F)(F)F)c1
- GI50 (SNB-75 CNS): 1.17 µM
- TGI (SNB-75 CNS): 8.53 µM
- GI50 (MDA-MB-468 breast): 1260 nM
- TGI (MDA-MB-468 breast): 7.64 µM
- GI50 (SK-MEL-2 melanoma): 12.4 µM
- TGI (SK-MEL-2 melanoma): 26.2 µM
- GI50 (BT-549 breast): 5.81 µM
- TGI (BT-549 breast): 28.6 µM
- GI50 (EKVX NSCLC): 5.55 µM
- TGI (EKVX NSCLC): 24.8 µM
- GI50 (OVCAR-3 ovarian): 6.07 µM
- TGI (OVCAR-3 ovarian): 27.8 µM
- GI50 (SN12C renal): 14.7 µM
- TGI (SN12C renal): 80.1 µM
- GI50 (SNB-19 CNS): 28.6 µM
- TGI (SNB-19 CNS): > 100 µM
- GI50 (IGROV1 ovarian): 0.118 µM
- TGI (IGROV1 ovarian): 1.34 µM
- GI50 (ACHN renal): 9.43 µM
- TGI (ACHN renal): 48.7 µM
- GI50 (NCI-H460 NSCLC): 2.13 µM
- TGI (NCI-H460 NSCLC): 43 µM
- GI50 (SK-OV-3 ovarian): 725 nM
- TGI (SK-OV-3 ovarian): 12.1 µM
- GI50 (RXF 393 renal): 5.57 µM
- TGI (RXF 393 renal): 22.5 µM
- GI50 (SF-268 CNS): 12.9 µM
- TGI (SF-268 CNS): 61.2 µM
- GI50 (NCI-H522 lung): 4.78 µM
- TGI (NCI-H522 lung): 23.8 µM
- GI50 (TK-10 renal): 4.71 µM
- TGI (TK-10 renal): 28.5 µM
- GI50 (OVCAR-5 ovarian): 5.5 µM
- TGI (OVCAR-5 ovarian): 37.4 µM
- GI50 (PC-3 prostate): 5.73 µM
- TGI (PC-3 prostate): 25.4 µM
- GI50 (HS 578T breast): 3.7 µM
- TGI (HS 578T breast): 18.4 µM
- GI50 (NCI-H23 lung): 12.1 µM
- TGI (NCI-H23 lung): 44.4 µM
- GI50 (SR leukemia): 3570 nM
- TGI (SR leukemia): 15.6 µM
- GI50 (HCC-2998 colon): 6.67 µM
- TGI (HCC-2998 colon): 25 µM
- GI50 (UACC-62 melanoma): 10.2 µM
- TGI (UACC-62 melanoma): 24 µM
- GI50 (RPMI-8226 leukemia): 7.05 µM
- TGI (RPMI-8226 leukemia): 21.7 µM
- GI50 (MOLT-4 leukemia): 0.857 µM
- TGI (MOLT-4 leukemia): 4.24 µM
- GI50 (MDA-MB-435 melanoma): 24.6 µM
- TGI (MDA-MB-435 melanoma): > 80.3 µM
- GI50 ([…]-0 renal): 17.4 µM
- TGI (786-0 renal): 54.8 µM
- GI50 (SW-620 colon): 8.53 µM
- TGI (SW-620 colon): 40.2 µM
- GI50 (CAKI-1 renal): 7.1 µM
- TGI (CAKI-1 renal): 26.9 µM
- GI50 (MDA-MB-231 breast): 13.5 µM
- TGI (MDA-MB-231 breast): 48.7 µM
- GI50 (SK-MEL-5 melanoma): 6.54 µM
- TGI (SK-MEL-5 melanoma): 14.9 µM
- GI50 (NCI-H226 lung): 8.88 µM
- TGI (NCI-H226 lung): 32.5 µM
- GI50 (HT29 colon): 1580 nM
- TGI (HT29 colon): 33.4 µM
- GI50 (NCI/ADR-RES ovarian): 16.5 µM
- TGI (NCI/ADR-RES ovarian): 71.9 µM
- GI50 (SF-295 CNS): 9.16 µM
- TGI (SF-295 CNS): 33.5 µM
- GI50 (U251 glioblastoma): 10.3 µM
- TGI (U251 glioblastoma): 39.5 µM
- GI50 (DU-145 prostate): 10.8 µM
- TGI (DU-145 prostate): 33.7 µM
- GI50 (HOP-62 NSCLC): 18 µM
- TGI (HOP-62 NSCLC): > 94.3 µM
- GI50 (NCI-H322M lung): 4.6 µM
- TGI (NCI-H322M lung): 26.6 µM
- GI50 (HCT-15 colon): 2.74 µM
- TGI (HCT-15 colon): 27.8 µM
- GI50 (HCT-116 colon): 7.62 µM
- TGI (HCT-116 colon): 42.8 µM
- GI50 (A498 renal): 8.13 µM
- TGI (A498 renal): 37.7 µM
- GI50 (OVCAR-4 ovarian): 7.73 µM
- TGI (OVCAR-4 ovarian): 40.7 µM
- GI50 (SK-MEL-28 melanoma): 7.87 µM
- TGI (SK-MEL-28 melanoma): > 83 µM
- GI50 (OVCAR-8 ovarian): 14.3 µM
- TGI (OVCAR-8 ovarian): 88.7 µM
- GI50 (K-562 leukemia): 15.6 µM
- TGI (K-562 leukemia): 35.1 µM
- GI50 (HL-60(TB) leukemia): 0.727 µM
- TGI (HL-60(TB) leukemia): 9.24 µM
